Reference: patent publication US7759355B2, “Adenosine A2A receptor antagonists for treating restless legs syndrome or nocturnal myoclonus” (Kyowa Hakko Kirin Co., Ltd., priority 2002, dated 2010)

Experiments:
[1] = system: parkinsonian monkeys; conditions: Neurology, 52, 1673-1677 (1999); cited from earlier work
[2] = system: patients with moderate to severe RLS; assay: Human clinical trial, RLS treatment with an A2A antagonist (IRLSRS total score and total PLMS index by polysomnography); assay type: in vivo; conditions: 80 mg once a day for 6 weeks
Method: In order to assess the efficacy of a representative A2A antagonist in treating RLS, a clinical trial was initiated and conducted in accordance with standard procedures. Briefly, the total score in International RLS Rating Scale (IRLSRS) and total PLMS index (polysomnography; PLMS index represents the number of periodic limb movements per hour of sleep) of the patients were measured to evaluate the efficacy of Compound A in RLS [Understanding and Diagnosing Restless Legs Syndrome (2003), Restless Legs Syndrome Foundation, 819 Second Street, SW Rochester, Minn. 55902].
Scoring for IRLSRS was made according to the following Instructions for Examiner (Maximum IRLSRS total score is 40).
The Examiner was instructed to have the patient rate his/her symptoms for the following ten questions. The patient and not the examiner made the ratings, but the examiner was available to clarify any misunderstandings the patient may have had about the questions. Either the examiner or the patient marked the answers on the form. In questions 1, 2, 4, 5, 6, 9 and 10, the following scoring was used: (4) Very severe; (3) Severe; (2) Moderate; (1) Mild; and (0) None.
Patients diagnosed with idiopathic RLS were withheld from the medication from the time of screening until the end of treatment. After tapering all RLS medications, patients were screened for eligibility. At Week −2, patients were admitted to the clinic on the night preceding the visit day to be adapted to the sleep environment of the laboratory. After screening, IRLSRS total score and total PLMS index of the patients were measured on Day −1 in order to establish a baseline and to assess the range of RLS fluctuation. Only patients with moderate to severe RLS (15 and more IRLSRS total scores) were enrolled in the study.
Treatment with Compound A (80 mg, once a day) began on the day following Day −1 visit and continued for the next 6 weeks. The last dose of Compound A was taken on the day of Week 6 visit. At Week 8, patients received RLS assessments (IRLSRS total score and total PLMS index). The inhibition ratio for each score was calculated by the following equation. Inhibition Ratio(%)={[(Score at Day−1)−(Score at Week 8)]/(Score at Day−1)}×100

[3] = system: patients with advanced Parkinson's disease; animal models; conditions: animal models and early Phase II studies in patients with advanced Parkinson's disease; cited from earlier work
[4] = Week 8 vs Day-1 baseline, N = 4

Structure (SMILES) | Hyperactivity and dyskinesia [1] | IRLSRS Total Score, Inhibition Ratio [2, 4] [%] | Total PLMS Index, Inhibition Ratio [2, 4] [%] | IRLSRS Total Score, Week 8, mean (SD) ([2]; assessed at Week 8, N = 4, baseline (Day-1) 32.5 (4.39), maximum score 40) | Total PLMS Index, Week 8, mean (SD) ([2]; assessed at Week 8, N = 4, baseline (Day-1) 45 (15.41), periodic limb movements per hour of sleep) | Effect on RLS symptoms ([2]; patients with moderate to severe RLS) | Amelioration of Parkinsonian symptoms [3]
CCn1c(=O)c2c(nc(/C=C/c3ccc(OC)c(OC)c3)n2C)n(CC)c1=O [KW-6002] | without producing hyperactivity and provoking dyskinesia | – | – | – | – | – | –
CCn1c(=O)c2c(nc(/C=C/c3ccc(OC)c(OC)c3)n2C)n(CC)c1=O [Compound A, (E)-8-(3,4-dimethoxystyryl)-1,3-diethyl-7-methylxanthine] | – | 29.2 | 45.2 | 23 (8.04) | 24.67 (23.89) | relief of RLS symptoms and improvement | efficacious in ameliorating Parkinsonian symptoms
